Laboratory results from the NIST ThermoML archive (doi:10.1016/j.tca.2016.04.001).
± gives the expanded uncertainty stated by the source.

Experiments:
[1] = xn = mol fraction of the nth substance listed; conditions: 87 kPa, Liquid, Vibrating tube method
[2] = 87 kPa, Liquid, Vibrating tube method

OC(CCl)CCl [1,3-dichloro-2-propanol] + CCOC(C)=O
mass density [kg/m3], [1]
Conditions | 293.15 K | 298.15 K | 303.15 K | 308.15 K | 313.15 K
x1 = 0.0442 | 921.07 ± 2.9 | 915.01 ± 2.9 | 909.02 ± 3 | 902.88 ± 3 | 896.68 ± 3
x1 = 0.0967 | 945.13 ± 2.9 | 939.12 ± 2.9 | 933.16 ± 2.9 | 927.05 ± 2.9 | 921.2 ± 3
x1 = 0.1971 | 991 ± 2.9 | 985 ± 2.9 | 979.1 ± 2.9 | 972.97 ± 2.9 | 967.2 ± 2.9
x1 = 0.3019 | 1039.05 ± 2.9 | 1033.15 ± 3 | 1027.3 ± 3 | 1021.22 ± 3 | 1015.41 ± 3
x1 = 0.3939 | 1081.4 ± 3 | 1075.55 ± 3 | 1069.64 ± 3 | 1063.7 ± 3 | 1057.83 ± 3
x1 = 0.4995 | 1130.18 ± 3 | 1124.35 ± 3 | 1118.48 ± 3 | 1112.58 ± 3 | 1106.65 ± 3
x1 = 0.6006 | 1176.92 ± 3 | 1171.1 ± 3 | 1165.25 ± 3 | 1159.37 ± 3 | 1153.45 ± 3
x1 = 0.6993 | 1222.62 ± 3 | 1216.83 ± 3 | 1210.95 ± 3 | 1205.06 ± 3 | 1199.14 ± 3
x1 = 0.8006 | 1269.78 ± 3 | 1263.96 ± 3 | 1258.07 ± 3 | 1252.15 ± 3 | 1246.2 ± 3
x1 = 0.9011 | 1316.79 ± 3 | 1310.89 ± 3 | 1304.97 ± 3 | 1299 ± 3 | 1293.1 ± 3
x1 = 0.953 | 1340.9 ± 3 | 1334.99 ± 3 | 1329.01 ± 3 | 1323.02 ± 3 | 1316.98 ± 3
x1 = 1 | 1362.66 ± 1.1 | 1356.74 ± 1.1 | 1350.72 ± 1.1 | 1344.71 ± 1.1 | 1338.65 ± 1.1

OCc1ccccc1 [benzenemethanol]
[2]
Conditions | mass density [kg/m3]
293.15 K | 1045.21 ± 1
298.15 K | 1041.38 ± 1
303.15 K | 1037.5 ± 1
308.15 K | 1033.63 ± 1
313.15 K | 1029.71 ± 1

OCc1ccccc1 [benzenemethanol] + C=COC(C)=O
[1], x1 = 1
Conditions | mass density [kg/m3]
293.15 K | 1045.21 ± 1
298.15 K | 1041.38 ± 1
303.15 K | 1037.5 ± 1
308.15 K | 1033.63 ± 1
313.15 K | 1029.71 ± 1

OCc1ccccc1 [benzenemethanol] + CC(=O)OC(C)(C)C
[1], x1 = 1
Conditions | mass density [kg/m3]
293.15 K | 1045.21 ± 1
298.15 K | 1041.38 ± 1
303.15 K | 1037.5 ± 1
308.15 K | 1033.63 ± 1
313.15 K | 1029.71 ± 1

OCc1ccccc1 [benzenemethanol] + CCOC(C)=O
mass density [kg/m3], [1]
Conditions | 293.15 K | 298.15 K | 303.15 K | 308.15 K | 313.15 K
x1 = 0.0452 | 909.04 ± 1.5 | 903.11 ± 1.5 | 897.12 ± 1.5 | 891.1 ± 1.5 | 885.03 ± 1.6
x1 = 0.1047 | 919.57 ± 1.5 | 913.81 ± 1.5 | 908.02 ± 1.5 | 902.18 ± 1.5 | 896.3 ± 1.5
x1 = 0.2008 | 935.91 ± 1.4 | 930.43 ± 1.4 | 924.91 ± 1.4 | 919.36 ± 1.5 | 913.77 ± 1.5
x1 = 0.3043 | 952.73 ± 1.4 | 947.53 ± 1.4 | 942.29 ± 1.4 | 937.02 ± 1.4 | 931.72 ± 1.4
x1 = 0.4 | 967.5 ± 1.4 | 962.53 ± 1.4 | 957.53 ± 1.4 | 952.49 ± 1.4 | 947.43 ± 1.4
x1 = 0.5017 | 982.41 ± 1.3 | 977.66 ± 1.4 | 972.89 ± 1.4 | 968.08 ± 1.4 | 963.26 ± 1.4
x1 = 0.6006 | 996.27 ± 1.3 | 991.73 ± 1.3 | 987.15 ± 1.3 | 982.56 ± 1.3 | 977.95 ± 1.3
x1 = 0.7013 | 1009.5 ± 1.3 | 1005.14 ± 1.3 | 1000.77 ± 1.3 | 996.37 ± 1.3 | 991.97 ± 1.3
x1 = 0.8074 | 1023 ± 1.3 | 1018.86 ± 1.3 | 1014.67 ± 1.3 | 1010.47 ± 1.3 | 1006.26 ± 1.3
x1 = 0.9042 | 1034.66 ± 1.2 | 1030.64 ± 1.2 | 1026.67 ± 1.3 | 1022.63 ± 1.3 | 1018.59 ± 1.3
x1 = 0.9537 | 1040.08 ± 1.2 | 1036.17 ± 1.2 | 1032.23 ± 1.2 | 1028.28 ± 1.2 | 1024.32 ± 1.2
x1 = 1 | 1045.21 ± 1 | 1041.38 ± 1 | 1037.5 ± 1 | 1033.63 ± 1 | 1029.71 ± 1

CCOC(C)=O [ethyl acetate] + OC(CCl)CCl
[1], x2 = 0
Conditions | mass density [kg/m3]
293.15 K | 900.71 ± 1
298.15 K | 894.65 ± 1
303.15 K | 888.52 ± 1
308.15 K | 882.35 ± 1
313.15 K | 876.12 ± 1

CCOC(C)=O [ethyl acetate] + OCc1ccccc1
[1], x2 = 0
Conditions | mass density [kg/m3]
293.15 K | 900.71 ± 1
298.15 K | 894.65 ± 1
303.15 K | 888.52 ± 1
308.15 K | 882.35 ± 1
313.15 K | 876.12 ± 1

C=COC(C)=O [vinyl acetate] + OC(CCl)CCl
[1], x2 = 0
Conditions | mass density [kg/m3]
293.15 K | 932.41 ± 1
298.15 K | 926.01 ± 1
303.15 K | 919.56 ± 1
308.15 K | 913.07 ± 1
313.15 K | 906.52 ± 1

C=COC(C)=O [vinyl acetate] + OCc1ccccc1
mass density [kg/m3], [1]
Conditions | 293.15 K | 298.15 K | 303.15 K | 308.15 K | 313.15 K
x2 = 0 | 932.41 ± 1 | 926.01 ± 1 | 919.56 ± 1 | 913.07 ± 1 | 906.52 ± 1
x2 = 0.0504 | 940.17 ± 1.4 | 934.2 ± 1.4 | 928.1 ± 1.4 | 922 ± 1.5 | 915.06 ± 1.4
x2 = 0.0954 | 947.04 ± 1.3 | 941.4 ± 1.3 | 935.7 ± 1.3 | 930 ± 1.4 | 922.62 ± 1.4
x2 = 0.1987 | 961.08 ± 1.3 | 955.4 ± 1.3 | 949.66 ± 1.3 | 943.89 ± 1.3 | 938.08 ± 1.4
x2 = 0.2999 | 974.18 ± 1.3 | 968.88 ± 1.3 | 963.51 ± 1.3 | 958.06 ± 1.3 | 952.57 ± 1.3
x2 = 0.3947 | 985.63 ± 1.2 | 980.52 ± 1.2 | 975.38 ± 1.3 | 970.21 ± 1.3 | 965 ± 1.3
x2 = 0.5005 | 997.61 ± 1.2 | 992.77 ± 1.2 | 987.91 ± 1.2 | 983.01 ± 1.2 | 978.09 ± 1.3
x2 = 0.5991 | 1008.19 ± 1.2 | 1003.62 ± 1.2 | 998.97 ± 1.2 | 994.32 ± 1.2 | 989.64 ± 1.2
x2 = 0.7047 | 1019.12 ± 1.2 | 1014.77 ± 1.2 | 1010.36 ± 1.2 | 1005.95 ± 1.2 | 1001.51 ± 1.2
x2 = 0.8037 | 1028.4 ± 1.2 | 1024.23 ± 1.2 | 1020.02 ± 1.2 | 1015.85 ± 1.2 | 1011.55 ± 1.2
x2 = 0.9067 | 1037.37 ± 1.1 | 1033.39 ± 1.2 | 1029.37 ± 1.2 | 1025.33 ± 1.2 | 1021.27 ± 1.2
